In patent US6906098B2, “Mixed steroidal 1,2,4,5-tetraoxane compounds and methods of making and using thereof” (priority 2002, dated 2005):
In brackets after ≈: the same amount, converted by molar mass. Several values for one entry are separate records, joined by “and”; a condition that tells them apart may be missing. Equal entries are not always repeated. Where two headings read alike, the source gives them in different places.

Tests used:
[1] = system: Plasmodium falciparum chloroquine-susceptible strain D6; experiment: In vitro antimalarial drug susceptibility assay (radiolabeled hypoxanthine incorporation), strain D6; type: cell-based; settings: for Strain D6 IC50: growth inhibition, chloroquine-susceptible strain D6, 66 h incubation; for IC50: Plasmodium falciparum, D6, 66 h, read-out: Strain D6 IC50, growth inhibition, chloroquine-susceptible strain D6, 66 h incubation
[2] = system: Plasmodium falciparum chloroquine-resistant strain W2; experiment: microbe, parasite or virus in culture; type: cell-based; settings: for Strain W2 IC50: growth inhibition, chloroquine-resistant strain W2, 66 h incubation; for IC50: Plasmodium falciparum, W2, 66 h, read-out: Strain W2 IC50, growth inhibition, chloroquine-resistant strain W2, 66 h incubation
[3] = system: D6 and W2 P. falciparum clones; type: cell-based, Plasmodium falciparum; settings: IC50 (W2)/IC50 (D6) ratio
[4] = system: Mycobacterium tuberculosis H37Rv (ATCC 27294); experiment: Primary screen, Microplate Alamar Blue Assay (MABA), percent inhibition; type: cell-based; settings: primary screening at 6.25 μg/ml; for inhibition at 6.25 µg/mL: Mycobacterium tuberculosis
Procedure: (§1) The activity of the compounds of the present invention against Mycobacterium tuberculosis was determined using the following assays conducted by the National Institute of Allergy and Infectious Diseases (NIAID) supports a TB drug acquisition and screening program, the TAACF.
To determine the percent inhibition the following assay was conducted. Primary screening was conducted at 6.25 μg/ml (or the molar equivalent of highest molecular weight compound in a given series of congeners) against Mycobacterium tuberculosis H37Rv (ATCC 27294) in BACTEC 12B medium using the Microplate Alamar Blue Assay (MABA). See Collins, L. and S. G. Franzblau. 1997. Microplate alamar blue assay versus BACTEC 460 system for high-throughput screening of compounds against Mycobacterium tuberculosis and Mycobacterium avium. Antimicrob Agents Chemother 41:1004-9, which is herein incorporated by reference.
Minimum compound requirements: 1.0 mg.

M. tuberculosis H37Rv = experiment: Minimum inhibitory concentration (MIC) in the MABA; type: cell-based, Mycobacterium tuberculosis
Procedure: as §1
2. Minimum Inhibitory Concentration (MIC)
The MIC is defined as the lowest concentration effecting a reduction in fluorescence of 90% relative to controls. Minimum compound requirements: 1.0 mg.

[5] = Table 3, H37Rv, read-out: Inhibition (%)
[6] = Table 5, Alamar assay, read-out: % Inhib
[7] = Mycobacterium tuberculosis, H37RV, Table 3, H37Rv, read-out: MIC
[8] = Mycobacterium tuberculosis, H37RV, Table 5, Alamar assay, M. tuberculosis H37Rv, read-out: MIC
[9] = Table 5, Alamar assay, M. tuberculosis H37Rv

CCNC(=O)CCC(C)[C@H]1CCC2C3C(C[C@H](OC(C)=O)[C@@]21C)[C@@]1(C)CCC2(C[C@H]1C[C@H]3OC(C)=O)OOC1(CCC(c3ccccc3)CC1)OO2 (single isomer, unassigned) [Compound 1C47, N-Ethyl-7α,12α-Diacetoxy-5β-cholan-24-amide-3-spiro-6′-(1′,2′,4′, 5′-tetraoxacyclohexane)-3′-spiro-1″-((4″R or S)-phenyl)cyclohexane]
Strain D6 IC50 [1]: 0.00541 µg/mL
Strain W2 IC50 [2]: 0.00587 µg/mL
Resistance Index [3]: 1.08
inhibition at 6.25 µg/mL [4, 5]: 50%
inhibition at 6.25 µg/mL [4, 6]: 50%
MIC (M. tuberculosis H37Rv; [7]): > 6.25 µg/mL
MIC (M. tuberculosis H37Rv; [8]): > 6.25 µg/mL

CCCNC(=O)CCC(C)[C@H]1CCC2C3C(C[C@H](OC(C)=O)[C@@]21C)[C@@]1(C)CCC2(C[C@H]1C[C@H]3OC(C)=O)OOC1(CCC(c3ccccc3)CC1)OO2 (single isomer, unassigned) [Compound 1C48, N-(n-Propyl)-7α,12α-Diacetoxy-5β-cholan-24-amide-3-spiro-6′-(1′,2′,4′,5′-tetraoxacyclohexane)-3′-spiro-1″-((4″R or S)-phenyl)cyclohexane]
Strain D6 IC50 [1]: 0.00659 µg/mL
Strain W2 IC50 [2]: 0.00672 µg/mL
Resistance Index [3]: 1.02
inhibition at 6.25 µg/mL [4, 5]: 46%
inhibition at 6.25 µg/mL [4, 6]: 46%
MIC (M. tuberculosis H37Rv; [7]): > 6.25 µg/mL
MIC (M. tuberculosis H37Rv; [8]): > 6.25 µg/mL

CC(=O)O[C@H]1CC2C(C3CC[C@H](C(C)CCC(=O)O)[C@]31C)[C@H](OC(C)=O)C[C@@H]1CC3(CC[C@]21C)OOC1(CCC(c2ccccc2)CC1)OO3 (single isomer, unassigned) [Compound 1C49, 7α,12α-Diacetoxy-5β-cholan-24-oic acid-3-spiro-6′-(1′,2′,4′,5′-tetraoxacyclohexane)-3′-spiro-1″-((4″S or R)-phenyl)cyclohexane]
Strain D6 IC50 [1]: 0.05424 µg/mL
Strain W2 IC50 [2]: 0.04385 µg/mL
Resistance Index [3]: 0.81
Inhibition (%) ([4]; Table 3, H37Rv): 89%
% Inhib ([4]; Table 5, Alamar assay): 89%
MIC (M. tuberculosis H37Rv; Table 3, H37Rv): >6.25 µg/mL
MIC (M. tuberculosis H37Rv; [9]): >6.25 µg/mL

CC(=O)O[C@H]1CC2C(C3CC[C@H](C(C)CCC(N)=O)[C@]31C)[C@H](OC(C)=O)C[C@@H]1CC3(CC[C@]21C)OOC1(CCC(c2ccccc2)CC1)OO3 (single isomer, unassigned) [Compound 1C50, 7α,12α-Diacetoxy-5β-cholan-24-amide-3-spiro-6′-(1′,2′,4′,5′-tetraoxacyclohexane)-3′-spiro-1″-((4″S or R)-phenyl)cyclohexane]
Strain D6 IC50 [1]: 0.04049 µg/mL
Strain W2 IC50 [2]: 0.03746 µg/mL
Resistance Index [3]: 0.92
Inhibition (%) ([4]; Table 3, H37Rv): 87%
% Inhib ([4]; Table 5, Alamar assay): 87%
MIC (M. tuberculosis H37Rv; Table 3, H37Rv): 6.25 µg/mL (≈ 8.98 µM)
MIC (M. tuberculosis H37Rv; [9]): >6.25 µg/mL

CNC(=O)CCC(C)[C@H]1CCC2C3C(C[C@H](OC(C)=O)[C@@]21C)[C@@]1(C)CCC2(C[C@H]1C[C@H]3OC(C)=O)OOC1(CCC(c3ccccc3)CC1)OO2 (single isomer, unassigned) [Compound 1C51, N-Methyl-7α,12α-Diacetoxy-5β-cholan-24-amide-3-spiro-6′-(1′,2′,4′,5′-tetraoxacyclohexane)-3′-spiro-1″-((4″S or R)-phenyl)cyclohexane]
Strain D6 IC50 [1]: 0.06462 µg/mL
Strain W2 IC50 [2]: 0.05472 µg/mL
Resistance Index [3]: 0.85
Inhibition (%) ([4]; Table 3, H37Rv): 61%
% Inhib ([4]; Table 5, Alamar assay): 61%
MIC (M. tuberculosis H37Rv; Table 3, H37Rv): >6.25 µg/mL
MIC (M. tuberculosis H37Rv; [9]): >6.25 µg/mL

CCNC(=O)CCC(C)[C@H]1CCC2C3C(C[C@H](OC(C)=O)[C@@]21C)[C@@]1(C)CCC2(C[C@H]1C[C@H]3OC(C)=O)OOC1(CCC(c3ccccc3)CC1)OO2 (single isomer, unassigned) [Compound 1C52, N-Ethyl-7α,12α-Diacetoxy-5β-cholan-24-amide-3-spiro-6′-(1′,2′,4′,5′-tetraoxacyclohexane)-3′-spiro-1″-((4″S or R)-phenyl)cyclohexane]
Strain D6 IC50 [1]: 0.03279 µg/mL
Strain W2 IC50 [2]: 0.03258 µg/mL
Resistance Index [3]: 0.99
Inhibition (%) ([4]; Table 3, H37Rv): 62%
% Inhib ([4]; Table 5, Alamar assay): 62%
MIC (M. tuberculosis H37Rv; Table 3, H37Rv): >6.25 µg/mL
MIC (M. tuberculosis H37Rv; [9]): >6.25 µg/mL

CCCNC(=O)CCC(C)[C@H]1CCC2C3C(C[C@H](OC(C)=O)[C@@]21C)[C@@]1(C)CCC2(C[C@H]1C[C@H]3OC(C)=O)OOC1(CCC(c3ccccc3)CC1)OO2 (single isomer, unassigned) [Compound 1C53, N-(n-Propyl)-7α,12α-Diacetoxy-5β-cholan-24-amide-3-spiro-6′-(1′,2′,4′,5′-tetraoxacyclohexane)-3′-spiro-1″-((4″S or R)-phenyl)cyclohexane]
Strain D6 IC50 [1]: 0.02428 µg/mL
Strain W2 IC50 [2]: 0.02454 µg/mL
Resistance Index [3]: 1.01
Inhibition (%) ([4]; Table 3, H37Rv): 59%
% Inhib ([4]; Table 5, Alamar assay): 59%
MIC (M. tuberculosis H37Rv; Table 3, H37Rv): >6.25 µg/mL
MIC (M. tuberculosis H37Rv; [9]): >6.25 µg/mL

COC(=O)CCC(C)[C@H]1CCC2C3C(C[C@H](OC(C)=O)[C@@]21C)[C@@]1(C)CCC2(C[C@H]1C[C@H]3OC(C)=O)OOC1(CCCC1)OO2 (stereo partly drawn) [8a/1B04, Methyl 7α,12α-Diacetoxy-5β-cholan-24-oate-3-spiro-6′-(1′,2′,4′,5′-tetraoxacyclohexane)-3′-spirocyclopentane]
IC50 [1]: 0.0243 µg/mL (≈ 0.0391 µM)
IC50 [2]: 0.0172 µg/mL (≈ 0.0277 µM)
Resistance Index [3]: 0.71
inhibition at 6.25 µg/mL [4, 6]: 0%
MIC (M. tuberculosis H37Rv; [8]): > 6.25 µg/mL

COC(=O)CCC(C)[C@H]1CCC2C3C(C[C@H](OC(C)=O)[C@@]21C)[C@@]1(C)CCC2(C[C@H]1C[C@H]3OC(C)=O)OOC1(CCCCC1)OO2 (stereo partly drawn) [8b/1B05, Methyl 7α,12α-Diacetoxy-5β-cholan-24-oate-3-spiro-6′-(1′,2′,4′,5′-tetraoxacyclohexane)-3′-spirocyclohexane]
IC50 [1]: 0.0136 µg/mL (≈ 0.0215 µM)
IC50 [2]: 0.0108 µg/mL (≈ 0.017 µM)
Resistance Index [3]: 0.79
inhibition at 6.25 µg/mL [4, 6]: 0%
MIC (M. tuberculosis H37Rv; [8]): > 6.25 µg/mL

COC(=O)CCC(C)[C@H]1CCC2C3C(C[C@H](OC(C)=O)[C@@]21C)[C@@]1(C)CCC2(C[C@H]1C[C@H]3OC(C)=O)OOC1(CC(C)CCC1C(C)C)OO2 (stereo partly drawn) [8f/1B10, Methyl 7α,12α-diacetoxy-5β-cholan-24-oate-3-spiro-6′-(1′,2′,4′,5′-tetraoxacyclohexane)-3′-spiro-1″-(−)-menthane]
IC50 [1]: 0.107 µg/mL (≈ 0.154 µM)
IC50 [2]: 0.0506 µg/mL (≈ 0.0732 µM)
Resistance Index [3]: 0.47
inhibition at 6.25 µg/mL [4, 6]: 0%
MIC (M. tuberculosis H37Rv; [8]): > 6.25 µg/mL

CC(=O)O[C@H]1CC2C(C3CC[C@H](C(C)CCC(=O)O)[C@]31C)[C@H](OC(C)=O)C[C@@H]1CC3(CC[C@]21C)OOC1(CCCCC1)OO3 (stereo partly drawn) [9b/1C15, 70α,12α-Diacetoxy-5β-cholan-24-oic acid-3-spiro-6′-(1′,2′,4′,5′-tetraoxacyclohexane)-3′-spirocyclohexane]
IC50 [1]: 0.019 µg/mL (≈ 0.0306 µM)
IC50 [2]: 0.0119 µg/mL (≈ 0.0192 µM)
Resistance Index [3]: 0.63
inhibition at 6.25 µg/mL [4, 6]: 33%
MIC (M. tuberculosis H37Rv; [8]): > 6.25 µg/mL

CC(=O)O[C@H]1CC2C(C3CC[C@H](C(C)CCC(=O)O)[C@]31C)[C@H](OC(C)=O)C[C@@H]1CC3(CC[C@]21C)OOC1(CCCCC1C)OO3 (stereo partly drawn) [9d/1C16, 7α,12α-Diacetoxy-5β-cholan-24-oic acid-3-spiro-6′-(1′,2′,4′,5′-tetraoxacyclohexane)-3′-spiro-1″-(2″-methyl)cyclohexane]
IC50 [1]: 0.0429 µg/mL (≈ 0.0676 µM)
IC50 [2]: 0.0238 µg/mL (≈ 0.0375 µM)
Resistance Index [3]: 0.56
inhibition at 6.25 µg/mL [4, 6]: 0%
MIC (M. tuberculosis H37Rv; [8]): > 6.25 µg/mL

CC(=O)O[C@H]1CC2C(C3CC[C@H](C(C)CCC(=O)O)[C@]31C)[C@H](OC(C)=O)C[C@@H]1CC3(CC[C@]21C)OOC1(CCC(C)CC1)OO3 (stereo partly shown) [9g/1C17]
Strain D6 IC50 [1]: 0.00097 µg/mL
Strain W2 IC50 [2]: 0.00062 µg/mL
Resistance Index [3]: 0.64
inhibition at 6.25 µg/mL [4, 5]: 21%
inhibition at 6.25 µg/mL [4, 6]: 21%
MIC (M. tuberculosis H37Rv; [7]): > 6.25 µg/mL and > 9.84 µM
MIC (M. tuberculosis H37Rv; [8]): > 6.25 µg/mL

CC(=O)O[C@H]1CC2C(C3CC[C@H](C(C)CCC(=O)O)[C@]31C)[C@H](OC(C)=O)C[C@@H]1CC3(CC[C@]21C)OOC1(CCC(C)CC1)OO3 (stereo partly shown) [9h/1C18]
Strain D6 IC50 [1]: 0.01974 µg/mL
Strain W2 IC50 [2]: 0.01126 µg/mL
Resistance Index [3]: 0.57
% Inhib ([4]; Table 5, Alamar assay): 34%
MIC (M. tuberculosis H37Rv; [9]): >6.25 µg/mL

CCCNC(=O)CCC(C)[C@H]1CCC2C3C(C[C@H](OC(C)=O)[C@@]21C)[C@@]1(C)CCC2(C[C@H]1C[C@H]3OC(C)=O)OOC1(CCCCC1C)OO2 (stereo partly drawn) [16/1C25, N-(n-Propyl)-7α,12α-diacetoxy-5β-cholan-24-amide-3-spiro-6′-(1′,2′,4′,5′-tetraoxacyclohexane)-3′-spiro-1″-(2″-methyl)cyclohexane]
IC50 [1]: 0.00889 µg/mL (≈ 0.0132 µM)
IC50 [2]: 0.00628 µg/mL (≈ 0.00929 µM)
Resistance Index [3]: 0.71
inhibition at 6.25 µg/mL [4, 6]: 87%
MIC (M. tuberculosis H37Rv; [8]): > 6.25 µg/mL
